Consider two molecules from patent US9872875B2, “Component and method for treating viral disease” (Institut Pasteur of Shanghai, Chinese Academy of Sciences, priority 2012, dated 2018).

Like-named read-outs stand apart in the source and are kept apart here.

One series deals with RD cells. The series can be described thus: Cytotoxicity to RD cells (Celltiter Glo). The format is cell-based. As for the experimental part: Cytotoxicity to RD cells at different E02 concentrations was measured using Celltitr Glo reagents as follows:
(1) Cells seeding: 24 h prior to testing, RD cells were seeded in 96-well cell culture plates at 5×10^4 per well;
(2) Cells incubated with E02: medium was removed from cell culture plates, 180 μl of DMEM containing 2% FBS was added, and then added 20 μl of DMEM solution with corresponding concentration of E02, placed in 37° C., 5% CO2 incubator for incubation;
(3) After cultured for 46 h, cellular ATP levels were measured using the PROMEGA Celltitr Glo reagents according to reagent instructions.
PPADS is an E02 analog (Khakh, Burnstock et al., 2001; Burnstock 2004; Coddou, Yan et al. 2011) and has a similar inhibitory effect on P2X subtypes to that of E02. RD cells were infected with EV71 clinical isolate FY 573 at different PPADS concentrations to determine the inhibitory effect of PPADS on EV71 replication. Detailed procedure is the same as that in “1” of Example 1. In addition, cytotoxicity to RD cells at each concentration of PPADS was determined. Detailed procedure is the same as that in “1” of Example 6.

The test system of a further series is EV71. The series can be described thus: Inhibition of EV71 replication in RD cells at 0.1, 1, 10 and 100 μM (CPE, crystal violet). It counts as cell-based, Enterovirus 71. To be noted: Table 8, antagonists. The method in brief: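 RD cells infected with EV71 and treated at 0.1, 1, 10 and 100 μM were incubated 3˜4 days, crystal violet-stained and inspected microscopically for CPE. Cytotoxicity was checked in parallel by culturing uninfected RD cells with compound for 3˜4 days and examining cell-layer damage.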

The target in another series is T1, P2X1 receptor (Homo sapiens, UniProt P51575).
T1 sequence (P51575 1-399): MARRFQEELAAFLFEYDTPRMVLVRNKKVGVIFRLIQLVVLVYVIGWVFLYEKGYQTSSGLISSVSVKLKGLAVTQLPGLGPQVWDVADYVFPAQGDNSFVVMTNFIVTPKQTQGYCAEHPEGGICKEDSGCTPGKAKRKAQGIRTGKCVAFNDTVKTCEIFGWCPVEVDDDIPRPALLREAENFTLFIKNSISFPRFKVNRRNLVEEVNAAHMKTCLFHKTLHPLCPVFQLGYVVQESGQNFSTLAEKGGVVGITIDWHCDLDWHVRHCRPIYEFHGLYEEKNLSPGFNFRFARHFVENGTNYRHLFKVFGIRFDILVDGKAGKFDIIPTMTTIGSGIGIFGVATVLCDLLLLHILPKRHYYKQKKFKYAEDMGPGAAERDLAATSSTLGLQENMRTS
To be noted: cited from earlier work.

The next series deals with T2, P2X3 receptor (Homo sapiens, UniProt P56373).
T2 sequence (P56373 1-397): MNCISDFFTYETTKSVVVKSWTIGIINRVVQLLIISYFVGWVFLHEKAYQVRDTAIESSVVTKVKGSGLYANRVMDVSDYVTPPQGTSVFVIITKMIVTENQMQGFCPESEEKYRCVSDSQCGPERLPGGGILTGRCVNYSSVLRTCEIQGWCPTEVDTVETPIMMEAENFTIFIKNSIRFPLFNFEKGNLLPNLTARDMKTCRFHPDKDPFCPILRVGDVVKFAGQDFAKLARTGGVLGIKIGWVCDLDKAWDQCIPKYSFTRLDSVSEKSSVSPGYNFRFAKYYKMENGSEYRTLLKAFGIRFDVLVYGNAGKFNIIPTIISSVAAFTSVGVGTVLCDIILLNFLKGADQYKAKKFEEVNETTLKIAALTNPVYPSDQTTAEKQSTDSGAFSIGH
To be noted: Table 8, antagonists; cited from earlier work.

The next series has as its target T3, P2X4 receptor (Homo sapiens, UniProt Q99571).
T3 sequence (Q99571 1-388): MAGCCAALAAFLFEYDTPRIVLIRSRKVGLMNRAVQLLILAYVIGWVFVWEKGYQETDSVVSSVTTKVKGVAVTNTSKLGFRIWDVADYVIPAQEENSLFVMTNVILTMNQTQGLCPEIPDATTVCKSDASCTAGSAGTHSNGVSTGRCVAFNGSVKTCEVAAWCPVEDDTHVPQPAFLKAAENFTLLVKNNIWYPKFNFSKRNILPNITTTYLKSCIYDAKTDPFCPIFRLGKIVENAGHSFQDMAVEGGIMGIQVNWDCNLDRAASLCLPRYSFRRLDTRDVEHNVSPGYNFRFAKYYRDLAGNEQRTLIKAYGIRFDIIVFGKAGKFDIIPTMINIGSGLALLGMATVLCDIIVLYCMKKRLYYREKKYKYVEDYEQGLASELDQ
To be noted: Table 8, antagonists; cited from earlier work.

The target of the next series is P2X6 receptor (Homo sapiens, UniProt O15547). Also on record: key: −: no activity; +: activating concentration >10 μM; ++: activating concentration 1~10 μM; +++: activating concentration <1 μM. To be noted: Table 8, antagonists; cited from earlier work.
Chain of P2X6 receptor (O15547 whole entry): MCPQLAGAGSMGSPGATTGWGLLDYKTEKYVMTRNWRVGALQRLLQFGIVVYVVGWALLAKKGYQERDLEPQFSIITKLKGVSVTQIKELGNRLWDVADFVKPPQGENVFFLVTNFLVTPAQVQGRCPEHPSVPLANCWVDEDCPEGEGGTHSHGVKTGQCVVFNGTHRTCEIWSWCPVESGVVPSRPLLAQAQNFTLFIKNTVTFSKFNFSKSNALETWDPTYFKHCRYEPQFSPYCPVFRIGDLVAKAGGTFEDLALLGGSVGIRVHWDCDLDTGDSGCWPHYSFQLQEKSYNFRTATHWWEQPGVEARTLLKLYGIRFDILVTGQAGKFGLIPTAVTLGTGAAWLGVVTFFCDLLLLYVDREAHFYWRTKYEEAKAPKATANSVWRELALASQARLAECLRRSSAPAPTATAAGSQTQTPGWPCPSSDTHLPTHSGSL
The target in the next series is T4, P2X7 receptor (Homo sapiens, UniProt Q99572).
T4 sequence (Q99572 1-595): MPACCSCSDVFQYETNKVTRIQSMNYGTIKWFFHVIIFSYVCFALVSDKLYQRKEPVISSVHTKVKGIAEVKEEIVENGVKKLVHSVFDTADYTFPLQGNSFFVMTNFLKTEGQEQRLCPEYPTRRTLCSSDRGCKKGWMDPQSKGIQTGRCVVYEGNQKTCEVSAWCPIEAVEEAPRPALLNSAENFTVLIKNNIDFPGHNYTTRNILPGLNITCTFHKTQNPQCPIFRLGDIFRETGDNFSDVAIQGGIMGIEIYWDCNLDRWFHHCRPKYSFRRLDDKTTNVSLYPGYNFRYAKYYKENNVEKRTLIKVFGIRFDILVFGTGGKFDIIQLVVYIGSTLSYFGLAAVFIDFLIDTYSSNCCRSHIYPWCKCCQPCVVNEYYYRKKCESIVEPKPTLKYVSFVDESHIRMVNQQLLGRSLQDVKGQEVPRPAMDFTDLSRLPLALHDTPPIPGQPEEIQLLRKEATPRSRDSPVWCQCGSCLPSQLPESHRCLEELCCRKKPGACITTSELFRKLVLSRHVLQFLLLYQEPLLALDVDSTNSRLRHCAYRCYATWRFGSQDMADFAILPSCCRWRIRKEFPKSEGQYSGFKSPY
The following applies: Table 8, antagonists; cited from earlier work.

In the case of `Cc1nc(N=Nc2ccc(S(=O)(=O)O)cc2S(=O)(=O)O)c(COP(=O)(O)O)c(C=O)c1O` [PPADS, pyridoxal-phosphate-6-azophenyl-2′, 4′-disulphonic acid], the “concentrations not cytotoxic to RD cells” value with RD cells (PPADS) was “lower than 64 μM”. Moreover, in the series with EV71, the “Inhibition of EV71 replication” value is “+ (+: inhibitory concentration >300 nM)”. Moreover, the “P2X receptors 1” value on P2X1 receptor (Table 8, antagonists) is “++ (++: inhibitory concentration = 10~300 nM)”. Further, at P2X3 receptor, the “P2X receptors 3” value is reported as “++ (++: inhibitory concentration = 10~300 nM)”. The “P2X receptors 4” value on P2X4 receptor is “−”. Also, on P2X6 receptor, the “P2X receptors 6” value is “+ (+: inhibitory concentration >300 nM)”. In addition, the “P2X receptors 7” value on P2X7 receptor is given as “+ (+: inhibitory concentration >300 nM)”.

`Cc1ccc(C(=O)Nc2ccc(S(=O)(=O)O)c3cc(S(=O)(=O)O)cc(S(=O)(=O)O)c23)cc1NC(=O)c1cccc(NC(=O)Nc2cccc(C(=O)Nc3cc(C(=O)Nc4ccc(S(=O)(=O)O)c5cc(S(=O)(=O)O)cc(S(=O)(=O)O)c45)ccc3C)c2)c1` [E02, Suramin Sodium]: the “cytotoxicity to RD cells” value with RD cells (1×10^−6 to 1×10^4 μM of E02, 46 h, cellular ATP) is “no cytotoxicity”. Moreover, the “Inhibition of EV71 replication” value in the series on EV71 was “+ (+: inhibitory concentration >300 nM)”. In addition, the “P2X receptors 1” value at P2X1 receptor is recorded as “++ (key: −: no activity; +: inhibitory concentration >300 nM; ++: inhibitory concentration = 10~300 nM; +++: inhibitory concentration <10 nM)”. In addition, the “P2X receptors 3” value on P2X3 receptor is on record as “+ (+: inhibitory concentration >300 nM)”. Moreover, the “P2X receptors 4” value on P2X4 receptor is “−”. Further, at P2X6 receptor, the “P2X receptors 6” value is recorded as “−”. At P2X7 receptor, the “P2X receptors 7” value is given as “−”.
